Common to all, as to format: cell-based
Experiment [1] concerns the target protein kinases (human kinome) (Homo sapiens, UniProt P54753).
Experiment [2] deals with protein kinases (human kinome) (Homo sapiens, UniProt Q9BZX2). As to conditions: protein UCK2 (Q9BZX2-1); experiment wp160, 8 hr; down.
In experiment [3] the target is protein kinases (human kinome) (Homo sapiens, UniProt Q8N5S9). As to conditions: experiment wp117.
For experiment [4], the target named is protein kinases (human kinome) (Homo sapiens, UniProt Q01415). The note with it: protein GALK2 (Q01415-1); experiment wp056; down.
The target in experiment [5] is protein kinases (human kinome) (Homo sapiens, UniProt Q8NFU5). The note with it: IPMK (Q8NFU5).
Experiment [6] deals with protein kinases (human kinome) (Homo sapiens, UniProt O00418). The note with it: experiment wp137.
For experiment [7], the target named is protein kinases (human kinome) (Homo sapiens, UniProt Q16877). The note with it: PFKFB4 (Q16877); experiment wp080.
Experiment [8] deals with protein kinases (human kinome) (Homo sapiens, UniProt Q96S53). The note with it: experiment wp147, 4 uM.
The target in experiment [9] is T1, protein kinases (human kinome) (Homo sapiens, UniProt Q96S38).
T1 sequence (Q96S38 1-1066): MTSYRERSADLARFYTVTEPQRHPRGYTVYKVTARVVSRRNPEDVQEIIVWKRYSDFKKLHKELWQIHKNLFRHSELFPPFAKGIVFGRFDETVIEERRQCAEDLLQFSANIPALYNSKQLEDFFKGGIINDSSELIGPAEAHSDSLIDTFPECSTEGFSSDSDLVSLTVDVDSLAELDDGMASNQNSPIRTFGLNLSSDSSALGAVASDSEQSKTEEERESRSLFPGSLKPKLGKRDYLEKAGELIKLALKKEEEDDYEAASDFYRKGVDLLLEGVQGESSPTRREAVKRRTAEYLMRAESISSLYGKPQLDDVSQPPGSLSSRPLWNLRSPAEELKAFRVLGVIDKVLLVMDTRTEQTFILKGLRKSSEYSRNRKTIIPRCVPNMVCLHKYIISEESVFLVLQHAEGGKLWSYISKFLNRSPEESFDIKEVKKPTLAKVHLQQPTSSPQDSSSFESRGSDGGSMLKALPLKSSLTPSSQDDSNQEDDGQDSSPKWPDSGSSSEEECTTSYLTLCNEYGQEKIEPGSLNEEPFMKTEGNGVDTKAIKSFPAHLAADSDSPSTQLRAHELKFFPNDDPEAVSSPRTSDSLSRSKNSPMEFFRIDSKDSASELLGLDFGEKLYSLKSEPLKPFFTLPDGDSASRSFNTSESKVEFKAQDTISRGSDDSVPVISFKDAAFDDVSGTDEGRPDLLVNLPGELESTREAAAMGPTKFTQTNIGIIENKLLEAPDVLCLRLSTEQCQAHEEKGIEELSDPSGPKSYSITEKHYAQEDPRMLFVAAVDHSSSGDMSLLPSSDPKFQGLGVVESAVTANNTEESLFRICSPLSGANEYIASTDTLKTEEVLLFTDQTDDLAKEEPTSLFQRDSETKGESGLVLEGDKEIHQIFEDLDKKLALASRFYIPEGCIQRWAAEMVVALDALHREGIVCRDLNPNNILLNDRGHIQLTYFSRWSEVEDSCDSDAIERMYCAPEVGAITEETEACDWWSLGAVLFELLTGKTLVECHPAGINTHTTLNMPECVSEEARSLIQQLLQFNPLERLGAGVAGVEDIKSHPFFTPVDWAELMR
As to conditions: for logFC RPS6KC1 (Q96S38): direction of change down; for logFC: RPS6KC1 (Q96S38).

Experiment [10] deals with protein kinases (human kinome) (Homo sapiens, UniProt Q9UK32).

Read-outs that look alike come from different tables or passages of the source.

Chain of protein kinases (human kinome) (Homo sapiens, UniProt Q9UK32) (Q9UK32 whole entry): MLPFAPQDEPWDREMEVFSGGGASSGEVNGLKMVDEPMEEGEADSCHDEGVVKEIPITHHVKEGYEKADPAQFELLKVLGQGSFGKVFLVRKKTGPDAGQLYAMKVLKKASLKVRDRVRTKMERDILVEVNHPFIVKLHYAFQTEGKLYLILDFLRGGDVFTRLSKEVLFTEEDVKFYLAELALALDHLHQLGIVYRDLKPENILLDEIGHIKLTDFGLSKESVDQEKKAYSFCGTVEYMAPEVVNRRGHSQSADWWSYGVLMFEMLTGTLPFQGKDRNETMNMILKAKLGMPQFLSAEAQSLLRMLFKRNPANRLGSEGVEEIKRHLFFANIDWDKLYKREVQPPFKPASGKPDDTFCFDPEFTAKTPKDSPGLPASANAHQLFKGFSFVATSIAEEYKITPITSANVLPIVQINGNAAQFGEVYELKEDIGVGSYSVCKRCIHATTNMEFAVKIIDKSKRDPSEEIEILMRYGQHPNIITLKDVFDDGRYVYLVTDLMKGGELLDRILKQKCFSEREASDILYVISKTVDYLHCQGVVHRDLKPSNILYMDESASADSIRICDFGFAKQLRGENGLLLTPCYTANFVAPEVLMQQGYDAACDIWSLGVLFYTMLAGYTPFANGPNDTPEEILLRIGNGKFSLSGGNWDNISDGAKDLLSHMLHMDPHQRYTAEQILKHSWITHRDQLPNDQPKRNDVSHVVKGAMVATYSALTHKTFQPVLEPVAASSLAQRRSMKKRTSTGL
Chain of protein kinases (human kinome) (Homo sapiens, UniProt Q8NFU5) (Q8NFU5 whole entry): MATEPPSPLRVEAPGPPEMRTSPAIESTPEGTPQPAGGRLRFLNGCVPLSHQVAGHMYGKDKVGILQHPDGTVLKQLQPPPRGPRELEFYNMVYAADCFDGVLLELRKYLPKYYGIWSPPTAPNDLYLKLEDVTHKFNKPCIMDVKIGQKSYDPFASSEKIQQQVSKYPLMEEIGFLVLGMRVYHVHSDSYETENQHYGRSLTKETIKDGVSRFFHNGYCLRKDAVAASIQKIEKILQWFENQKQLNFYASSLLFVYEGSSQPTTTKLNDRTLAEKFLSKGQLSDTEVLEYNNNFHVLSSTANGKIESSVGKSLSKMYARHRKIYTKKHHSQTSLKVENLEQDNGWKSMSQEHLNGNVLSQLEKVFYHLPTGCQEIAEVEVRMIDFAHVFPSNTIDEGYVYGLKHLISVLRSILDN
Chain of protein kinases (human kinome) (Homo sapiens, UniProt O00418) (O00418 whole entry): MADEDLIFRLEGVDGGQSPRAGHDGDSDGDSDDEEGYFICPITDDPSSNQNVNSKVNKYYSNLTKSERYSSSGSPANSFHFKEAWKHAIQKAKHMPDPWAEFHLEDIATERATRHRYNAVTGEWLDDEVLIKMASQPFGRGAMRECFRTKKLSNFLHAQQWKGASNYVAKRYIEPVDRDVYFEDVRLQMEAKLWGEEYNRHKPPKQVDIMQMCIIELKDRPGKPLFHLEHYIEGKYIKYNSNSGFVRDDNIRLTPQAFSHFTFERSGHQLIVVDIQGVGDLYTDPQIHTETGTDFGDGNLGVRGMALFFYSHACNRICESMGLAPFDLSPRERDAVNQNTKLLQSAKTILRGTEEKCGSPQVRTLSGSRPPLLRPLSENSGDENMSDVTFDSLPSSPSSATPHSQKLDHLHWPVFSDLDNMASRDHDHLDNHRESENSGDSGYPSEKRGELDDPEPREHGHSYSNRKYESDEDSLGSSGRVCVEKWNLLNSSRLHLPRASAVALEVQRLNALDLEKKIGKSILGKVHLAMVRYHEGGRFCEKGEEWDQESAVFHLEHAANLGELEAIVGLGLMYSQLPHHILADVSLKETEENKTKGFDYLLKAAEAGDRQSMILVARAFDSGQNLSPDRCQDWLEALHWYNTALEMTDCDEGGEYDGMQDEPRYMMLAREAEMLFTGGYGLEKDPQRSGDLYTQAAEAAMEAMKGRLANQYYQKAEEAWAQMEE
Chain of protein kinases (human kinome) (Homo sapiens, UniProt P54753) (P54753 34-998): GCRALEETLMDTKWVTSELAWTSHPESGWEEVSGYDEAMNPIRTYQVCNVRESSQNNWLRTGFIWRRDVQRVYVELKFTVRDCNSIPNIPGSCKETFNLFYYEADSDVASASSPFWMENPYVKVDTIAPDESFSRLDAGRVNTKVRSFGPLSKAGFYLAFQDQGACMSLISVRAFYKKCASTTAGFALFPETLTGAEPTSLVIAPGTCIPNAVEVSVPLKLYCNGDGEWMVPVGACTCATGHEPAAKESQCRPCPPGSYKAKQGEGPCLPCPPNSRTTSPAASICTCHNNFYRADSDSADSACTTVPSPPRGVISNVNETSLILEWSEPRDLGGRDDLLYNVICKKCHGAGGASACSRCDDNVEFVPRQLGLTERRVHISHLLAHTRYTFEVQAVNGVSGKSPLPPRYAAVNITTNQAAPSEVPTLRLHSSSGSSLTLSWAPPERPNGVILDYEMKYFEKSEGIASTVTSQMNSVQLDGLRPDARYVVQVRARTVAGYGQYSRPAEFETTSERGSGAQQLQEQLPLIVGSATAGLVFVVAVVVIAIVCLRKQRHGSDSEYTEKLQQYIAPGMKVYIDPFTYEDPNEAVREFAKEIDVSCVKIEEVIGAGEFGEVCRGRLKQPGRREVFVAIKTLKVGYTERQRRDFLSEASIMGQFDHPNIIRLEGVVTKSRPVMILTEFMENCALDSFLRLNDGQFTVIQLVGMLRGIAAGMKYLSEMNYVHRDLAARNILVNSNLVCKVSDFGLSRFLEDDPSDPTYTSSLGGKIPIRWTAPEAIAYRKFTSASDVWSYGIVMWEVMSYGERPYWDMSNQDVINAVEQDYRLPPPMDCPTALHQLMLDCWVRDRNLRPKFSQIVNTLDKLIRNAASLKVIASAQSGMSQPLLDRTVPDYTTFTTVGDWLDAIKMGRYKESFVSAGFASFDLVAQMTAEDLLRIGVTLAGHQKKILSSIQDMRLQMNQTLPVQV
Chain of protein kinases (human kinome) (Homo sapiens, UniProt Q96S53) (Q96S53 whole entry): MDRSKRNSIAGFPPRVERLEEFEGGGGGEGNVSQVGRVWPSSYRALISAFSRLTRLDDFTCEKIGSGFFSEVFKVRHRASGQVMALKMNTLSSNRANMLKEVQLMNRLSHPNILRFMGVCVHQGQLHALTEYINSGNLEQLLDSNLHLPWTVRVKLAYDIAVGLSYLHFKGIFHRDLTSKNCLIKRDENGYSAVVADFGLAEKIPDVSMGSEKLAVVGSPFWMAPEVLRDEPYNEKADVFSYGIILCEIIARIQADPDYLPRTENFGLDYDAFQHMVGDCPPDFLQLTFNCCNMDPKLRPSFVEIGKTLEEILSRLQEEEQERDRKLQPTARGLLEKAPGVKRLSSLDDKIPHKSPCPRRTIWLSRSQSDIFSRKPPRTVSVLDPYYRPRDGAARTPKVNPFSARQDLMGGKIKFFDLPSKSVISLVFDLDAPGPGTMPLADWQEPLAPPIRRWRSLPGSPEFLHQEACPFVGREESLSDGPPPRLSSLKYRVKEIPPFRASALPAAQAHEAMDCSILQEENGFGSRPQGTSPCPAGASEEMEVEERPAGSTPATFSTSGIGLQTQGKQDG
Chain of protein kinases (human kinome) (Homo sapiens, UniProt Q8N5S9) (Q8N5S9 whole entry): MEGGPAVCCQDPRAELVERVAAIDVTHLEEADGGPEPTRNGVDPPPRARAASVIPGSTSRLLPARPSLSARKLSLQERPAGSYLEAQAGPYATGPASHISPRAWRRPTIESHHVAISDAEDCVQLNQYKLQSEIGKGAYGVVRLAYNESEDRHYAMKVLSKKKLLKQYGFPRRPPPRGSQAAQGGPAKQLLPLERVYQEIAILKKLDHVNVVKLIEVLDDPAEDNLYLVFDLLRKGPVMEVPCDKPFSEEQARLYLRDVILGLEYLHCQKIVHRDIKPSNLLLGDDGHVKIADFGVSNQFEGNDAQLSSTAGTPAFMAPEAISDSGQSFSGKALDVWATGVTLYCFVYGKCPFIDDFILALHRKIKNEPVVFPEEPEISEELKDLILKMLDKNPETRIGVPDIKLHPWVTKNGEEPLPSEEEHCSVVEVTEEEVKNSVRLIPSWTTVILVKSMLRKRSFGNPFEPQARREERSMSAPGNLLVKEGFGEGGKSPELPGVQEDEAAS
Chain of protein kinases (human kinome) (Homo sapiens, UniProt Q16877) (Q16877 whole entry): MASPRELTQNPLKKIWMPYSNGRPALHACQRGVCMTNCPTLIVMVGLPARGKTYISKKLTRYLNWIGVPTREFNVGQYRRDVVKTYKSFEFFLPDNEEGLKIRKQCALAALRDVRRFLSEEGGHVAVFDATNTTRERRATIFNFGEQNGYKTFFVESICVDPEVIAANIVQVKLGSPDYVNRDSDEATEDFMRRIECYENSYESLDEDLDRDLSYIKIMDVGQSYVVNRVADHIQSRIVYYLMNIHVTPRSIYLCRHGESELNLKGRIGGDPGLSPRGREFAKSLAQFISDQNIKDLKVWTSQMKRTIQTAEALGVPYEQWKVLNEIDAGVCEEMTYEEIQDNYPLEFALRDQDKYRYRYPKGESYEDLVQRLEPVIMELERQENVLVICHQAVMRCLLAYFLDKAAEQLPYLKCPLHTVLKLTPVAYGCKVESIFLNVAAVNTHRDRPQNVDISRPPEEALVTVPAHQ
Chain of protein kinases (human kinome) (Homo sapiens, UniProt Q9BZX2) (Q9BZX2 whole entry): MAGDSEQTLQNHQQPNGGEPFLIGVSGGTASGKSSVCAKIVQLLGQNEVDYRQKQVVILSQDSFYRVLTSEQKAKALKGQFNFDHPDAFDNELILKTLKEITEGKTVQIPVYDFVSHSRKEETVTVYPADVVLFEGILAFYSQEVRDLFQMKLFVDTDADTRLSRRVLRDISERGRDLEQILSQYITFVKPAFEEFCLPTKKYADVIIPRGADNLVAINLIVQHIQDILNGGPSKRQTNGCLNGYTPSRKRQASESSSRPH

Turning to `Cc1ccc(NC(=O)c2cccc(C(F)(F)F)c2)cc1N1Cc2cnc(Nc3ccc(N4CCN(Cc5cn(CCCCCOc6cccc7c6C(=O)N(C6CCC(=O)NC6=O)C7=O)nn5)CC4)nc3)nc2N(C)C1=O` (stereo not shown) [DB0646, N-(3-(7-((6-(4-((1-(5-((2-(2,6-Dioxopiperidin-3-yl)-1,3-dioxoisoindolin-4-yl)oxy)pentyl)-1H-1,2,3-triazol-4-yl)methyl)piperazin-1-v)pyridin-3-yl)amino)-1-methyl-2-oxo-1,4-dihydropyrimido[4,5-d]pyrimidin-3(2H)-yl)-4-methylphenyl)-3-(trifluoromethyl)benzamide], the “logFC EPHB3 (P54753)” value in experiment [1] (Experiment wp114, direction of change down) is on record as −0.4175. The “logFC EPHB3” value in [1] (protein EPHB3 (P54753), experiment wp114, down) is −0.4175. Moreover, in experiment [2], the “logFC UCK2” value is reported as −0.3246.
In turn, `CS(=O)(=O)Nc1cccc(-c2csc3cnc(Nc4ccc(N5CCN(CCCCCOc6cccc7c6C(=O)N(C6CCC(=O)NC6=O)C7=O)CC5)cc4)nc23)c1` (stereo not shown) [DB0614, N-(3-(2-((4-(4-(5-((2-(2,6-Dioxopiperidin-3-yl)-1,3-dioxoisoindolin-4-yl)oxy)pentyl)piperazin-1-yl)phenyl)amino)thieno[3,2-d]pyrimidin-7-yl)phenyl)methanesulfonamide] showed a logFC in [3] (CAMKK1 (Q8N5S9)) of −0.471. Also, the “logFC CAMKK1 (Q8N5S9)” value in [3] (direction of change down) is reported as −0.471.
As for `C=CCn1c(=O)c2cnc(Nc3ccc(N4CCN(CCCNc5cccc6c5C(=O)N(C5CCC(=O)NC5=O)C6=O)CC4)cc3)nc2n1-c1cccc(C(C)(C)O)n1` (stereo not shown) [ZNL.02.096], the “logFC GALK2” value in experiment [4] is recorded as −0.3724.
`Nc1ncc(-c2ccc(S(=O)(=O)N(CCCNC(=O)CCOCCOCCOCCOCCOCCNc3cccc4c3C(=O)N(C3CCC(=O)NC3=O)C4=O)C3CC3)cc2)cc1-c1ccc2c(c1)CCNC2=O` (stereo not shown) [WH.10417.099]: the logFC in experiment [5] (experiment wp056) was −0.5845; in experiment [5] (experiment wp107), −0.4154.
Turning to `CC(C)S(=O)(=O)c1ccccc1Nc1nc(Nc2ccc(N3CCN(CCOCCOCCNC(=O)CNc4cccc5c4C(=O)N(C4CCC(=O)NC4=O)C5=O)CC3)cc2)ncc1Cl` (stereo not shown) [TL12.186], the “logFC EEF2K (O00418)” value in experiment [6] (direction of change down) is recorded as −0.3443. Also, the “logFC EEF2K” value in experiment [6] (protein EEF2K (O00418), down) is −0.3443.
In experiment [7], `Cc1ncsc1-c1ccc([C@H](C)NC(=O)[C@@H]2C[C@@H](O)CN2C(=O)[C@@H](NC(=O)CCCCCN2CCN(c3ccc(Nc4ncc5scc(-c6cccc(NS(C)(=O)=O)c6)c5n4)cc3)CC2)C(C)(C)C)cc1` [RSS0680, (2S,4R)-1-((S)-3,3-Dimethyl-2-(6-(4-(4-((7-(3-(methylsulfonamido)phenyl)thieno[3,2-d]pyrimidin-2-yl)amino)phenyl)piperazin-1-yl)hexanamido)butanoyl)-4-hydroxy-N—((S)-1-(4-(4-methylthiazol-5yl)phenyl)ethyl)pyrrolidine-2-carboxamide] gave a logFC of −0.3389.
As to `CC(C)(C)c1nc(-c2cccc(NS(=O)(=O)c3c(F)cccc3F)c2F)c(-c2ccnc(NCCOCCNC(=O)CCOCCOCCNc3cccc4c3C(=O)N(C3CCC(=O)NC3=O)C4=O)n2)s1` (stereo not shown) [DD.03.106], in experiment [8] (direction of change down), the “logFC TESK2 (Q96S53-1)” value is −0.3831. The “logFC TESK2” value in experiment [8] (protein TESK2 (Q96S53-1), down) is recorded as −0.3831.
Turning to `CC(C)S(=O)(=O)c1ccccc1Nc1nc(Nc2ccc(N3CCN(CCOCCNC(=O)CNc4cccc5c4C(=O)N(C4CCC(=O)NC4=O)C5=O)CC3)cc2)ncc1Cl` (stereo not shown) [SK.3.91], the “logFC RPS6KC1 (Q96S38)” value is recorded as −0.3327 in experiment [9] (Experiment wp105) and −0.3623 in [9] (experiment wp107). Besides, the logFC is −0.3327 in experiment [9] (experiment wp105) and −0.3623 in [9] (experiment wp107). The “logFC RPS6KA6 (Q9UK32)” value in [10] (Experiment wp105, direction of change down) is recorded as −0.83. In addition, the “logFC RPSGKA6” value in experiment [10] (protein RPSGKA6 (Q9UK32), experiment wp105, down) is given as −0.83.

The values are drawn from US20240269139A1, “COMPOUNDS FOR TARGETED PROTEIN DEGRADATION OF KINASES” (DANA-FARBER CANCER INSTITUTE, INC., priority 2020, published 2024).
